A melting point compilation (Tetko et al.; mined from patent text by program, amines drawn as free bases though some values may be those of a salt)

melting point | SMILES
161 to 162 °C | OCc1cc2ccccc2cc1CO
169 to 171 °C | CC(=C(C#N)C#N)c1ccc2cc(N3CCN(C(=O)OC(C)(C)C)CC3)ccc2c1
152 °C | Cc1cc(C(=O)O)ccc1C1=CCCCC1C(C)(C)C (stereo not drawn)
297 to 300 °C | O=c1[nH]c2cc(Cl)ccc2c(O)c1-c1cccc(C#Cc2ccccc2)c1
113 to 114 °C | CCC(NC(C)=O)c1ccc(CN2CCN(c3ccc(F)cc3)CC2)cc1 (stereo not drawn)
251 to 253 °C | CCOCc1nc2c(N)nc3cc(OCc4ccc(F)cc4)ccc3c2n1CC(C)(C)NS(C)(=O)=O
115 to 125 °C | Cn1c(=O)c2c(C#N)cccc2n2cnc(-c3noc(C4CC4)n3)c12
209 to 211 °C | COc1ccc(CSc2nc(NC(CO)CO)c3ncc(=O)[nH]c3n2)cc1Cl
163 to 168 °C | O=C(N1CCOCC1)N1CCN(CCNc2ncc3ncnc(Nc4ccc(F)c(Cl)c4)c3n2)CC1
275 to 283 °C | Nc1nc(O)c2c(n1)NC[C@H](CCc1ccc(Br)cc1)C2
160 to 162 °C | COc1cc(-c2ncn(C)c2-c2ccc3c(c2)NCCO3)cc(OC)c1OC
173 to 175 °C | CN(C)C=Nc1nnnc2c1ncn2C1CC(O)C(CO)O1 (stereo not drawn)
240 to 241 °C | O=C1Nc2ccccc2Oc2cscc21
172 to 173 °C | CCCc1c(OC(=S)N(C)C)ccc2c(C)c(CC(=O)OC)c(=O)oc12
215 to 217 °C | COc1cc(OC)c2c(=O)[nH]c(-c3ccc4[nH]c(CCN5CCCC5)cc4c3)nc2c1
209 to 210 °C | COCC1(C)CCOc2ccc(/C=C/c3ccc(C(=O)O)cc3)cc21 (stereo not drawn)
143 °C | COc1ccc2c(c1)CC(C(=O)NCc1ccc(C(=O)O)cc1)N2S(=O)(=O)c1ccc(-c2ccc(F)cc2F)cc1 (stereo not drawn)
60 to 62 °C | COC(=O)/C=C/c1ccc(Br)s1
149 °C | CC(C)(CO)CNc1nccc(-c2c(-c3ccc(F)cc3)nc3occn23)n1
135 to 136 °C | Cc1cc(C)c2c(c1O)C(N)C(c1ccccc1)C2 (stereo not drawn)
244 to 245 °C | O=C(O)Cc1ccc2oc3ncccc3c(=O)c2c1
125 °C | N=C(NC(=O)c1ccccc1)Oc1ccccc1

melting point | SMILES
132 °C | Cc1nc2c(n1C1CC1)CCCC2=O
63.5 to 65 °C | CCOC(=O)c1c(C(F)(F)F)nc(C(F)F)c(C=O)c1CC
140 to 147 °C | NS(=O)(=O)c1ccsc1C1=CC(=O)CCC1
49 to 50 °C | ClCc1coc(-c2cccc(OCc3ccccc3)c2)n1
56 to 57 °C | N[C@@H](COc1cccc(Cl)n1)c1ccccc1
146 to 148 °C | Nc1cc(Cl)nc(C(=O)O)c1C=O
299 to 300 °C | Cc1nnc(-c2ccccn2)[nH]c1=O
145 to 146 °C | COc1cccc(NC(=O)c2ccc(F)c([N+](=O)[O-])c2)c1
203 to 205 °C | N#Cc1cnc2cc(-c3csc(CN4CCOCC4)c3)ccc2c1Nc1ccc(Cl)cc1Cl
204 to 206 °C | Nc1nc2cc(OCC(=O)N3CCOCC3)ccc2c2c1nc1n2CCOC1
52 to 54 °C | Oc1ccccc1-n1cccc1
50 to 52 °C | CCOC(C)O[C@H]1C(=O)N(C(=O)Oc2ccccc2)[C@H]1c1ccccc1 (stereo partly drawn)
232 to 235 °C | Nc1ccc(N2CCCCC2)c(C(=O)O)c1
132 to 133 °C | Cc1csc(=Nc2ccc(C(C)C(=O)O)c(Cl)c2)n1C (stereo not drawn)
140 °C | O=S(=O)(Cl)c1ccc2cc(Oc3c(Cl)cc(C(F)(F)F)cc3Cl)ccc2c1
99 to 100 °C | Cc1ccc(C(=O)SCC2C(=O)OCC2c2ccc(Cl)cc2)cc1 (stereo not drawn)
180 to 183 °C | NC(=O)C1CN(CC(=O)Nc2c(Cl)cccc2Cl)CCN1 (stereo not drawn)
195 °C | CC1CCCCC1Nc1c(C(=O)O)cnn2cccc12 (stereo not drawn)
166 to 168 °C | CC(C)(C)c1ccc(CN2CCN(Cc3ccc(NS(C)(=O)=O)cc3)C2=O)cc1
53 to 63 °C | COc1ccc(CNc2cc(OC)c(Cl)cc2OC)cc1
97 to 98 °C | CCSc1ccnc(Cl)c1C#N
